In BindingDB's records for doi:10.1016/j.bmc.2007.10.027 (Research Triangle Institute, 2008) one finds Ki data, which are given here for four molecules.

Chain of Neuronal acetylcholine receptor subunit alpha-4 (P09483 whole entry): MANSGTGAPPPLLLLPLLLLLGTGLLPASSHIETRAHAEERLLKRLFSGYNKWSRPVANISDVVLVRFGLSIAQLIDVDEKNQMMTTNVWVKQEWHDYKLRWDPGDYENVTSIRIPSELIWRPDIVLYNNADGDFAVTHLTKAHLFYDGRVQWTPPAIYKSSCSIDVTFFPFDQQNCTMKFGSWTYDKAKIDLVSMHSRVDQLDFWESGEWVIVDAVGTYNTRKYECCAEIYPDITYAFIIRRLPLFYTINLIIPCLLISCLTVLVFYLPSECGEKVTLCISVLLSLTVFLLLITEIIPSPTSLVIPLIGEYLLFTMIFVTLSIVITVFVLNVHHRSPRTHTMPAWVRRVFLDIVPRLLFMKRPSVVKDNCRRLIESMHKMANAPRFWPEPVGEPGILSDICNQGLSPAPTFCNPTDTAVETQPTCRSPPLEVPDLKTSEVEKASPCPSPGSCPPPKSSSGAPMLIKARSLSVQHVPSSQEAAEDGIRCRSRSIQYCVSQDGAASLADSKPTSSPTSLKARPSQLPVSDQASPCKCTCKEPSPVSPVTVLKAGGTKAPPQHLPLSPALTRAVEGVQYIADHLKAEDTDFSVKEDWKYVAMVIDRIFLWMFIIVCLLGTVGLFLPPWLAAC

The assay concerns the target Neuronal acetylcholine receptor subunit alpha-4 (Rattus norvegicus, UniProt P09483).
`Nc1cccc(-c2cc(C3CC4CCC3N4)cnc2F)c1` (racemic) [CAS_45263775] showed an inhibitory constant (Ki) of 0.1 nM.

Regarding `COc1cccc(-c2cc(C3CC4CCC3N4)cnc2F)c1` (racemic) [CAS_45266054], the Ki came to 0.12 nM.

Consider `c1cncc(C2CC3CCC2N3)c1` (centres undefined) [2-(pyridin-3-yl)-7-aza-bicyclo[2.2.1]heptane], for which the inhibitory constant (Ki) was 0.02 nM.

In the case of `Fc1ncc(C2CC3CCC2N3)cc1-c1ccccc1` (centres undefined) [NSC_45263762], the Ki came out at 0.24 nM.

Usually Ki stands for a measure of affinity in units of concentration, obtained from inhibition or displacement. High values mean lower affinity, low ones higher affinity.
